These compounds were tested against T1, ERα protein (HiBiT-tagged) in ESR1_HiBiT KI MCF7 cells (Homo sapiens, UniProt P03372) (assay: Nano Glo HiBiT Lytic Degradation Assay). Details: 6 hours with compound, 14-point dose response 1:3, bell-shape curve fit, half-maximal effect of first Hill model, read-out: MCF7 ESR1 HiBiT - (DC50).
T1 sequence (P03372 1-595): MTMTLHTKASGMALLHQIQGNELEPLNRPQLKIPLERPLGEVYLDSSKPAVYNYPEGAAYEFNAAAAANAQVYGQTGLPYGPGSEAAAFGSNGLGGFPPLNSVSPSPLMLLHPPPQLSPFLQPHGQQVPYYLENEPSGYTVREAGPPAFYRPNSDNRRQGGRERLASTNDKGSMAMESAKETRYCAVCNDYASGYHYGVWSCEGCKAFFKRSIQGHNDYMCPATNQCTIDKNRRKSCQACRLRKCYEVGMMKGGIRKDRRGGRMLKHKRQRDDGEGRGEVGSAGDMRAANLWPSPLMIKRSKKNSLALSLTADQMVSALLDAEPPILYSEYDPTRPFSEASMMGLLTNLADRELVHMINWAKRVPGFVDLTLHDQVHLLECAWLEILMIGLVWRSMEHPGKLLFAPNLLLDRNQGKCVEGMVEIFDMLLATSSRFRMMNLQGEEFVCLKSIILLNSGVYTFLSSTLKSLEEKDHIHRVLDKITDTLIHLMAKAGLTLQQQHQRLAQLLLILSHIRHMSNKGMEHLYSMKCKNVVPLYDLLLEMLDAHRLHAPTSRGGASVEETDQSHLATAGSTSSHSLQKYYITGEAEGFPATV
Type: cell-based
How it was run: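 ESR1_HiBiT knock-in MCF7 cells were seeded 24 h before treatment, then exposed to compounds for 6 h at 37° C (14-point 1:3 curves, 10 mM top stock, 0.1% DMSO final, duplicates). HiBiT-ERα was read by lytic LgBiT luminescence, background-subtracted and normalized to DMSO. DC50 was taken from the half-maximal point of the first Hill component of a bell-shaped fit.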

| SMILES | DC50 [nM] |
| --- | --- |
| C[C@]1(c2ccccc2)CCc2cc(O)ccc2[C@H]1c1ccc(N2CCC(CN3CCN(c4ccc5c(c4)CN([C@H]4CCC(=O)NC4=O)C5=O)CC3)CC2)cc1 [Compound I-147, (S)-3-(5-(4-((1-(4-((1S,2S)-6-hydroxy-2-methyl-2-phenyl-1,2,3,4-tetrahydronaphthalen-1-yl)phenyl)piperidin-4-yl)methyl)piperazin-1-yl)-1-oxoisoindolin-2-yl)piperidine-2,6-dione] | 0.42 |
| C[C@@]1(c2ccccc2)CCc2cc(O)ccc2[C@@H]1c1ccc(N2CCC(CN3CCN(c4ccc5c(c4)CN([C@H]4CCC(=O)NC4=O)C5=O)CC3)CC2)cc1 [Compound I-148, (S)-3-(5-(4-((1-(4-((1R,2R)-6-hydroxy-2-methyl-2-phenyl-1,2,3,4-tetrahydronaphthalen-1-yl)phenyl)piperidin-4-yl)methyl)piperazin-1-yl)-1-oxoisoindolin-2-yl)piperidine-2,6-dione] | 424 |
| O=C1CC[C@H](N2Cc3cc(N4CCN(CC5CCN(c6ccc([C@@H]7c8ccc(O)cc8CC[C@@H]7C7CCCCC7)nc6)CC5)CC4)ccc3C2=O)C(=O)N1 [Compound I-149, (S)-3-(5-(4-((1-(6-((1S,2R)-2-cyclohexyl-6-hydroxy-1,2,3,4-tetrahydronaphthalen-1-yl)pyridin-3-yl)piperidin-4-yl)methyl)piperazin-1-yl)-1-oxoisoindolin-2-yl)piperidine-2,6-dione] | 0.82 |
| O=C1CC[C@H](N2Cc3cc(N4CCN(CC5CCN(c6ccc([C@H]7c8ccc(O)cc8CC[C@H]7C7CCCCC7)nc6)CC5)CC4)ccc3C2=O)C(=O)N1 [Compound I-150, (S)-3-(5-(4-((1-(6-((1R,2S)-2-cyclohexyl-6-hydroxy-1,2,3,4-tetrahydronaphthalen-1-yl)pyridin-3-yl)piperidin-4-yl)methyl)piperazin-1-yl)-1-oxoisoindolin-2-yl)piperidine-2,6-dione] | ≥ 10000 |
| COc1cc(N2CCC(CN3CCN(c4ccc5c(c4)CN([C@H]4CCC(=O)NC4=O)C5=O)CC3)CC2)ccc1[C@H]1c2ccc(O)cc2CC[C@H]1C1CCCCC1 [Compound I-151, (S)-3-(5-(4-((1-(4-((1R,2S)-2-cyclohexyl-6-hydroxy-1,2,3,4-tetrahydronaphthalen-1-yl)-3-methoxyphenyl)piperidin-4-yl)methyl)piperazin-1-yl)-1-oxoisoindolin-2-yl)piperidine-2,6-dione] | 11 |
| COc1cc(N2CCC(CN3CCN(c4ccc5c(c4)CN([C@H]4CCC(=O)NC4=O)C5=O)CC3)CC2)ccc1[C@@H]1c2ccc(O)cc2CC[C@@H]1C1CCCCC1 [Compound I-152, (S)-3-(5-(4-((1-(4-((1S,2R)-2-cyclohexyl-6-hydroxy-1,2,3,4-tetrahydronaphthalen-1-yl)-3-methoxyphenyl)piperidin-4-yl)methyl)piperazin-1-yl)-1-oxoisoindolin-2-yl)piperidine-2,6-dione] | 1.43 |
| CC(C)[C@@H]1CC(F)(F)c2cc(O)ccc2[C@@H]1c1ccc(N2CCC(CN3CCN(c4ccc5c(c4)CN([C@H]4CCC(=O)NC4=O)C5=O)CC3)CC2)cc1 [Compound I-153, (S)-3-(5-(4-((1-(4-((1S,2S)-4,4-difluoro-6-hydroxy-2-isopropyl-1,2,3,4-tetrahydronaphthalen-1-yl)phenyl)piperidin-4-yl)methyl)piperazin-1-yl)-1-oxoisoindolin-2-yl)piperidine-2,6-dione] | 13 |
| CC(C)[C@H]1CC(F)(F)c2cc(O)ccc2[C@H]1c1ccc(N2CCC(CN3CCN(c4ccc5c(c4)CN([C@H]4CCC(=O)NC4=O)C5=O)CC3)CC2)cc1 [Compound I-156, (S)-3-(5-(4-((1-(4-((1R,2R)-4,4-difluoro-6-hydroxy-2-isopropyl-1,2,3,4-tetrahydronaphthalen-1-yl)phenyl)piperidin-4-yl)methyl)piperazin-1-yl)-1-oxoisoindolin-2-yl)piperidine-2,6-dione] | 0.4 |
| O=C1CC[C@H](N2Cc3cc(N4CCN(CC5CCN(c6ccc([C@@H]7c8ccc(O)cc8CC[C@@H]7CC(F)(F)F)cc6)CC5)CC4)ccc3C2=O)C(=O)N1 [Compound I-157, (3S)-3-[5-[4-[[1-[4-[(1R,2R)-6-hydroxy-2-(2,2,2-trifluoroethyl)tetralin-1-yl]phenyl]-4-piperidyl]methyl]piperazin-1-yl]-1-oxo-isoindolin-2-yl]piperidine-2,6-dione] | 0.86 |
| O=C1CC[C@H](N2Cc3cc(N4CCN(CC5CCN(c6ccc([C@@H]7c8ccc(O)cc8CC[C@@H]7C78CC9CC(CC(C9)C7)C8)cc6)CC5)CC4)ccc3C2=O)C(=O)N1 [Compound I-161, (S)-3-(5-(4-((1-(4-((1R,2S)-2-((3R,5R,7R)-adamantan-1-yl)-6-hydroxy-1,2,3,4-tetrahydronaphthalen-1-yl)phenyl)piperidin-4-yl)methyl)piperazin-1-yl)-1-oxoisoindolin-2-yl)piperidine-2,6-dione] | 8 |
| O=C1CC[C@H](N2Cc3cc(N4CCN(CC5CCN(c6ccc([C@@H]7c8ccc(O)cc8CC[C@@H]7C7CCCCC7)cc6F)CC5)CC4)ccc3C2=O)C(=O)N1 [Compound I-162, (S)-3-(5-(4-((1-(4-((1R,2R)-2-cyclohexyl-6-hydroxy-1,2,3,4-tetrahydronaphthalen-1-yl)-2-fluorophenyl)piperidin-4-yl)methyl)piperazin-1-yl)-1-oxoisoindolin-2-yl)piperidine-2,6-dione] | 3 |
| C[C@H]1Cc2cc(O)ccc2[C@@H](c2ccc(N3CCC(CN4CCN(c5ccc6c(c5)CN([C@H]5CCC(=O)NC5=O)C6=O)CC4)CC3)cc2)[C@H]1c1ccccc1 [Compound I-174, (S)-3-(5-(4-((1-(4-((1R,2S,3S)-6-hydroxy-3-methyl-2-phenyl-1,2,3,4-tetrahydronaphthalen-1-yl)phenyl)piperidin-4-yl)methyl)piperazin-1-yl)-1-oxoisoindolin-2-yl)piperidine-2,6-dione] | 18 |
| C[C@@H]1Cc2cc(O)ccc2[C@@H](c2ccc(N3CCC(CN4CCN(c5ccc6c(c5)CN([C@H]5CCC(=O)NC5=O)C6=O)CC4)CC3)cc2)[C@H]1c1ccccc1 [Compound I-175, (S)-3-(5-(4-((1-(4-((1R,2S,3R)-6-hydroxy-3-methyl-2-phenyl-1,2,3,4-tetrahydronaphthalen-1-yl)phenyl)piperidin-4-yl)methyl)piperazin-1-yl)-1-oxoisoindolin-2-yl)piperidine-2,6-dione] | 0.77 |
| O=C1CCC(c2ccc(N3CC[C@@H]4[C@H]3CCN4CC3CCN(c4ccc([C@@H]5c6ccc(O)cc6CC[C@@H]5c5ccccc5)cc4)CC3)cc2)C(=O)N1 (stereo partly drawn) [Compound I-176, 3-(4-((3aR,6aR)-4-((1-(4-((1R,2S)-6-hydroxy-2-phenyl-1,2,3,4-tetrahydronaphthalen-1-yl)phenyl)piperidin-4-yl)methyl)hexahydropyrrolo[3,2-b]pyrrol-1 (2H)-yl)phenyl)piperidine-2,6-dione] | 3300 |
| O=C1CCC(c2ccc(N3CC[C@H]4[C@@H]3CCN4CC3CCN(c4ccc([C@@H]5c6ccc(O)cc6CC[C@@H]5c5ccccc5)cc4)CC3)cc2)C(=O)N1 (stereo partly drawn) [Compound I-177, 3-(4-((3aS,6aS)-4-((1-(4-((1R,2S)-6-hydroxy-2-phenyl-1,2,3,4-tetrahydronaphthalen-1-yl)phenyl)piperidin-4-yl)methyl)hexahydropyrrolo[3,2-b]pyrrol-1 (2H)-yl)phenyl)piperidine-2,6-dione] | ≥ 10000 |
| O=C1CCC(c2cccc(N3CC[C@H]4[C@@H]3CCN4CC3CCN(c4ccc([C@@H]5c6ccc(O)cc6CC[C@@H]5c5ccccc5)cc4)CC3)c2)C(=O)N1 (stereo partly drawn) [Compound I-179, 3-(3-((3aS,6aS)-4-((1-(4-((1R,2S)-6-hydroxy-2-phenyl-1,2,3,4-tetrahydronaphthalen-1-yl)phenyl)piperidin-4-yl)methyl)hexahydropyrrolo[3,2-b]pyrrol-1 (2H)-yl)phenyl)piperidine-2,6-dione] | 34 |
| O=C1CCC(c2ccc(N3CCC4(CCN(CC5CCN(c6ccc([C@@H]7c8ccc(O)cc8CC[C@@H]7c7ccccc7)cc6)CC5)CC4)CC3)cc2)C(=O)N1 (stereo partly drawn) [Compound I-180, 3-[4-[9-[[1-[4-[(1R,2S)-6-hydroxy-2-phenyl-tetralin-1-yl]phenyl]-4-piperidyl]methyl]-3,9-diazaspiro[5.5]undecan-3-yl]phenyl]piperidine-2,6-dione] | 1.3 |
| O=C1CCC(c2ccc(C3CC4(C3)CN(CC3CCN(c5ccc([C@@H]6c7ccc(O)cc7CC[C@@H]6c6ccccc6)cc5)CC3)C4)cc2)C(=O)N1 (stereo partly drawn) [Compound I-182, 3-(4-(2-((1-(4-((1R,2S)-6-hydroxy-2-phenyl-1,2,3,4-tetrahydronaphthalen-1-yl)phenyl)piperidin-4-yl)methyl)-2-azaspiro[3.3]heptan-6-yl)phenyl)piperidine-2,6-dione] | 2 |
